Data as given in patent publication US20250213719A1, “MAGNETIC NANOPARTICLES AND METHODS OF DRUG RELEASE” (University of Notre Dame du Lac, priority 2022, published 2025).
Where “and” joins values, the source holds several entries; their conditions need not be identical. Equal values may be shown once. Read-outs that look alike come from different tables or passages of the source.

What was measured:
Type in all cases: cell-based
[1] = tested on: MDA-MB-231 triple-negative breast cancer cells; conditions: free or released from Dox-MagSiNs by AC magnetic field
Protocol: (§1) The media in each well of the chamber slides was carefully aspirated, and the wells were rinsed twice with 400 μL of 1×PBS. The cells were incubated with Ethidium-homodimer Ill dye and Calcein-AM dye mix at manufacturer recommended concentrations (Life-technologies), and the slides were incubated for 30 minutes in the cell incubator, in the dark. After incubation, the wells were rinsed twice with 400 μL of 1×PBS. Lastly, 300 μL of 4% buffered parafomaldehyde was added to each well, and the slides were taken to be imaged with a NikonU inverted fluorescent microscope with a 10× lens using a standard FITC/RITC green and red fluorescent filter cubes.
Viable cell populations of treated and untreated control cancer cell lines and treated and untreated normal cell lines were determined at the end of each run using a calcein-AM/propidium iodide assay to determine total cells and viable cell populations. […] When PI does gain access to nucleic acids and intercalates, its fluorescence increases dramatically and is therefore used to identify dead cells. […]
In this study, for each sample set (control group or test group), the total number of cells with green fluorescence and the total number of cells with red fluorescence were counted as separate datasets. […] For each sample set, the percent dead-cells and percent live-cells was calculated. […]

[2] = tested on: PC-3 prostate cancer cells; experiment: Live/dead cell viability assay; conditions: 500 nM Dox, free or released from Dox-MagSiNs by AC magnetic field, hydrochloride
Protocol: as §1
(§2) Viable cell populations of treated and untreated control cancer cell lines and treated and untreated normal cell lines were determined at the end of each run using a calcein-AM/propidium iodide assay to determine total cells and viable cell populations. The calcein-AM assay is based on the conversion of the cell permeant non-fluorescent calcein-AM dye to the fluorescent calcein dye by intracellular esterase activity in live cells. […] When PI does gain access to nucleic acids and intercalates, its fluorescence increases dramatically and is therefore used to identify dead cells. Calcein-Am and PI can be used separately or together to assess cellular viability or cell death, respectively.
(§3) In this study, for each sample set (control group or test group), the total number of cells with green fluorescence and the total number of cells with red fluorescence were counted as separate datasets. […] For each sample set, the percent dead-cells and percent live-cells was calculated. The percent live-cells was used as a measure of viability. A paired t-test under the assumption of comparing two-samples with equal variances and a >=0.05 was used to determine the statistical significance of the test-groups in comparison to the control groups.
(§4) A unidirectional magnetic field of 30-50 Gauss and an alternating magnetic field of 100 Hz, 30-50 Gauss were used for these experiments.

[3] = tested on: A2780 ovarian cancer cells; experiment: Live/dead cell viability assay; conditions: free or released from Dox-MagSiNs by AC magnetic field
Protocol: as §1, §2, §3, §4

HUVEC cells = experiment: Live/dead cell viability assay; conditions: free or released from Dox-MagSiNs by AC magnetic field, permanent magnet 24 h then AC field 10 h, assay at 48 h
Protocol: as §1, §2, §3, §4

For `COc1cccc2c1C(=O)c1c(O)c3c(c(O)c1C2=O)C[C@@](O)(C(=O)CO)C[C@@H]3O[C@H]1C[C@H](N)[C@H](O)[C@H](C)O1.Cl` [Dox·HCl, doxorubicin hydrochloride], the cell death ([1]; 20 nM Dox) was “insignificant cell death”, the cell death ([1]; 500 nM Dox) was 4% and the cell death [2] was 100%. For the same compound, the cell death ([2]; listed as Dox) was 100% and > 95%, the cell death ([3]; 20 nM Dox) was > 20% and the cell death ([3]; 500 nM Dox, hydrochloride) was 83%. For the same compound, the cell death ([3]; 500 nM Dox, listed as Dox, hydrochloride) was 83% and 80-85%, the cell death (HUVEC cells; 20 nM Dox·HCl) was 100% and the cell death (HUVEC cells; 500 nM Dox·HCl) was 100%.
